Measured values reported in patent US12239644B2, “Composition for prevention or treatment of macular degeneration” (KYUNGPOOK NATIONAL UNIVERSITY INDUSTRY-ACADEMIC COOPERATION …, priority 2018, dated 2025).
Read-outs that look alike come from different tables or passages of the source.

Experiments:
HIF-1α = details: ARPE-19 cells, 1% oxygen 4-6 hours, fursultiamine-HCl 20, 50, 100 μM
Method: After hypoxic exposure for 4-6 hours, the cells were lysed with a protein lysis buffer and protein isolation from the lysate was conducted.

[1] = system: choroidal vascular endothelial cells; details: C57BL/6J choroid/sclera in Matrigel, day 3 to 5
Method: Effects of fursultiamine on the growth of choroidal vascular endothelial cells were evaluated by the ex vivo mouse choroid sprouting assay for age-related macular degeneration.
The eyeball was resected from C57BL/6J mice (Jackson Laboratory) at 3 or 4 weeks of age and the choroid/sclera was separated therefrom and sectioned into a size of 1 mm×1 mm. After being thawed on ice, Matrigel (Becton Dickinson, BD matrigel) in a liquid state was added in an amount of 300 μl to each well of 24-well plates and one of the cut choroid/sclera segments was seeded in the Matrigel in each well. Then, Matrigel was solidified for 10 min in a 37° C. incubator before adding 500 μl of an EGM medium (Lonza, Endothelial Growth Medium) to each well.
Subsequently, the growth of vascular endothelial cells was induced in a 37° C. incubator. The medium was exchanged every two days with a fresh one containing 20 μM or 50 μM fursultiamine-HCl. The growth of vascular endothelial cells from the choroid was monitored from the day of seeding the choroid/sclera and observed on day 3 to 5. The sprouting distances were measured at a total of 4 sites using the ImageJ software and averaged. Statistical analyses were performed with the Prism program, with statistical significance defined as p<0.05.

VEGF = details: ARPE-19 medium
Method: ARPE-19 cells were seeded into 60-mm dishes and incubated overnight to adhere to the dishes. On the next day, the medium was replaced with serum-free medium. The cells were treated with fursultiamine-HCl (Toronto research chemical, F865230) or a vehicle (DMSO, Sigma-Aldrich) at the specific concentrations of 0 μM, 50 μM, and 100 μM and then exposed to 1% oxygen condition in a hypoxic chamber (INVIVO2 400, Baker). After hypoxic exposure for 4-6 hours, the cells were lysed with a protein lysis buffer and protein isolation from the lysate was conducted.
After 12 hours later, the medium was recovered and secreted levels of VEGF in the medium were measured using human VEGF enzyme linked immunoassay (ELISA) (R&D systems). Quantitation methods and concentration calculations were conducted according to the manufacturer's manual. Statistical analyses were performed using the Prism program, with statistical significance defined as p<0.05.

laser-induced CNV models = details: C57BL/6J mice, 50 mg/kg orally for 8 days, one week after laser
Method: (§1) Statistical analyses were performed using the Prism program, with statistical significance defined as p<0.05.

[2] = system: laser-induced choroid neovascularization (CNV) models; details: C57BL/6J mice, 50 mg/kg orally for 8 days, one week after laser
Method: as §1

ARPE-19 cells = details: ARPE-19, LPS 10 ug/ml + fursultiamine 50 uM (24 h)
Method: To be specific, ARPE-19 cells were seeded onto 96-well XF plates, with the exchange of a fresh medium every two days. On day 5 after cell seeding, the cells were treated with 10 μg/ml LPS (lipopolysaccharides, Sigma-Aldrich) and then with 50 μM fursultiamine on day 6. On day 7, the medium was exchanged with an XF medium (Seahorse XF DMEM medium, Agilent) and the plates were left for 30 min at 37° C. in a non-CO2 incubator.
In order to assess mitochondrial spare capacity, the following mitochondrial electron transport inhibitors and respiratory uncouplers were used in corresponding steps: oligomycin (2 μM), FCCP (0.5 μM), rotenone (2 μM), and antimycin A (2 μM).
The oxygen consumption rate (OCR) was measured using an XFe96 analyzer (Agilent) according to the manufacturer's manual.

CC(=C(CCO)SSCC1CCCO1)N(C=O)Cc1cnc(C)nc1N (stereo in doubt) [Fursultiamine, thiamine tetrahydrofurfuryl disulfide]
expression of HIF-1α upregulated in the hypoxic condition (HIF-1α): reduced | Sprouting range (pixels) ([1]; Fursultiamine 20 uM): 229.926 ± 28.348 pixels | Sprouting range (pixels) ([1]; Fursultiamine 50 uM): 126.713 ± 22.810 pixels | VEGF (VEGF; 1% O2, Fursultiamine 50 μM): 163.4 ± 7.4 pg/mL | VEGF (VEGF; 1% O2, Fursultiamine 100 μM): 47.4 ± 4.6 pg/mL | Lesion size (10^−3mm^2) (laser-induced CNV models): 15.7 ± 1.0 10^−3mm^2 | vascular leakage for the late phase [2]: decreased | OCR (%) (mitochondrial spare capacity) (ARPE-19 cells): 189.438 ± 21.392%
